Assay results: patent US20260284051A1, “METHIONINE ADENOSYLTRANSFERASE 2A (MAT2A) INHIBITOR COMBINATIONS AND USES THEREOF” (INSILICO MEDICINE IP LIMITED, priority 2023, published 2026)
pIC50: −log10 of the molar value.

Target: MAT2A (Homo sapiens, UniProt P31153)
Assay: MAT2A Biochemical Assay
Conditions: read-out: MAT2A enzymatic IC50
Method: Example A: MAT2A Biochemical Assay
Compounds described herein were tested as follows:
• (1). Prepared 1×Assay buffer. • (2). Preparation of compound concentration gradient: the compounds test condition were […], 3-fold dilution, 10 doses, singlet or duplicate. 100x concentration compounds were prepared in 384-well plate. Then used Echo 550 to transfer 250 nl to a 384-reaction plate for later use. Added 250 nl of 100% DMSO to the negative and positive control wells. • (3). Prepared 1.67× final concentration enzyme solution with 1×Assay buffer. • (4). Added 15 μl of 1.67× Enzyme solution to the compound wells and positive control wells; added 15 μl of 1×Assay buffer to the negative control wells. • (5). Centrifuged at 1000 rpm for 30 seconds and incubate for 15 minutes. • (6). Prepared 2.5× final concentration Substrate mix solution with 1×Assay buffer. • (7). Added 10 μl of 2.5× final concentration Substrate mix solution to start the reaction. • (8). Centrifuged at 1000 rpm for 30 seconds and incubate for 150 minutes. • (9). Added […] Biomol Green to stop the reaction, centrifuge at 1000 rpm for 30 seconds and incubate for 15 minutes. read O.D.620, process data.
• (1) Using GraphPad Prism 5.
[formula] • (3) Max signal was obtained from the positive control wells. • (4) Min signal was obtained from the negative control wells.

Chain of MAT2A (P31153 whole entry, species assumed): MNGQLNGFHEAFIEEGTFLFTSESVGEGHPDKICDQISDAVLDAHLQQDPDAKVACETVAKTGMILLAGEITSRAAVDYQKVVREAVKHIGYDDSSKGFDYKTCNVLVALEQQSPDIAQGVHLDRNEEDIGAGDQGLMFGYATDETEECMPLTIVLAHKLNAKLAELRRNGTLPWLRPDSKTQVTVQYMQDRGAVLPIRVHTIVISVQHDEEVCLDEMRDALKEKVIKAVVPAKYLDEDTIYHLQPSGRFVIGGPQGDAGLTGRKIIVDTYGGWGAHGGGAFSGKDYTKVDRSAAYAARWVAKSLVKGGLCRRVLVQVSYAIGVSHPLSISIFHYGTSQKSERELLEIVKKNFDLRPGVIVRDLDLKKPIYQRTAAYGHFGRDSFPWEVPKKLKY

Row | SMILES | pIC50
1 | C#CCN(C)c1nc(=O)n(-c2cccnc2)c2cc(C(F)(F)F)ccc12 [Example 51] | > 7.30
2 | C#CCNc1nc(=O)n(-c2nccnc2C)c2cc(C(F)(F)F)cc(OC)c12 [Example 48] | > 7.30
3 | C#CCNc1nc(=O)n(-c2cccnc2)c2cc(Cl)ccc12 [Example 1] | > 7.30
4 | C#CC1(Nc2nc(=O)n(-c3cnccn3)c3cc(Cl)cc(OC)c23)CC1 [Example 24] | > 7.30
5 | C#CC(C)Nc1nc(=O)n(-c2cccnc2C)c2cc(C(F)(F)F)cc(OC)c12 (stereo not shown) [Example 37] | > 7.30
6 | C#CCNc1nc(=O)n(-c2cnccn2)c2cc(C(F)(F)F)ccc12 [Example 53] | > 7.30
7 | C#CCNc1nc(=O)n(-c2cccnc2)c2nc(C(F)(F)F)ncc12 [Example 61] | > 7.30
8 | C#CCNc1nc(=O)n(-c2cccnc2)c2cc(Cl)cc(F)c12 [Example 29] | > 7.30
9 | C#CC1(Nc2nc(=O)n(-c3cccnc3)c3nc(C(F)(F)F)ccc23)CC1 [Example 68] | > 7.30
10 | C#CCNc1nc(=O)n(-c2cccnc2C)c2cc(Cl)ccc12 [Example 15] | > 7.30
11 | C#CCNc1nc(=O)n(-c2cccnc2)c2cc(Cl)cc(OC)c12 [Example 20] | > 7.30
12 | C#CC1(Nc2nc(=O)n(-c3cccnc3C)c3cc(Cl)cc(OC)c23)CC1 [Example 27] | > 7.30
13 | C=CCNc1nc(=O)n(-c2cccnc2)c2cc(Cl)cc(OC)c12 [Example 73] | > 7.30
14 | C#CCNc1nc(=O)n(-c2nccnc2C)c2cc(Cl)cc(OC)c12 [Example 23] | > 7.30
15 | C#CCNc1nc(=O)n(-c2cccnc2C)c2cc(C(F)(F)F)ccc12 [Example 33] | > 7.30
16 | C#CCNc1nc(=O)n(-c2cccnc2C)c2cc(Cl)cc(OC)c12 [Example 22] | > 7.30
17 | C#CCNc1nc(=O)n(-c2cccnc2)c2cc(C(F)(F)F)ccc12 [Example 7] | > 7.30
18 | C#CC1(Nc2nc(=O)n(-c3cccnc3)c3cc(C(F)(F)F)ccc23)CC1 [Example 67] | > 7.30
19 | C#CCNc1nc(=O)n(-c2cnccn2)c2cc(Cl)cc(OC)c12 [Example 21] | > 7.30
20 | C#CCNc1nc(=O)n(-c2ccccc2Cl)c2cc(Cl)ccc12 [Example 10] | > 7.30

Row | SMILES | pIC50
21 | C#CCNc1nc(=O)n(-c2cccnc2C(C)C)c2cc(C(F)(F)F)ccc12 [Example 45] | > 7.30
22 | C=CCNc1nc(=O)n(-c2cccnc2)c2cc(C(F)(F)F)ccc12 [Example 76] | > 7.30
23 | C=CCNc1nc(=O)n(-c2cccnc2C)c2cc(C(F)(F)F)cc(OC)c12 [Example 77] | > 7.30
24 | C#CC1(Nc2nc(=O)n(-c3cccnc3C)c3cc(C(F)(F)F)ccc23)CC1 [Example 46] | > 7.30
25 | C#CC1(Nc2nc(=O)n(-c3cccnc3C)c3cc(C(F)(F)F)cc(OC)c23)CCC1 [Example 50] | > 7.30
26 | C#CC(C)Nc1nc(=O)n(-c2cccnc2)c2cc(C(F)(F)F)cc(OC)c12 (stereo not shown) [Example 35] | > 7.30
27 | C#CCNc1nc(=O)n(-c2cnccn2)c2cc(Cl)ccc12 [Example 17] | > 7.30
28 | O=c1nc(NCC#CCN2CCOCC2)c2ccc(C(F)(F)F)cc2n1-c1cccnc1 [Example 14] | > 7.30
29 | C#CC1(Nc2nc(=O)n(-c3cccnc3)c3cc(Cl)cc(OC)c23)CC1 [Example 66] | > 7.30
30 | C#CCCNc1nc(=O)n(-c2ccccc2Cl)c2cc(Cl)ccc12 [Example 8] | > 7.30
31 | C#CC1(Nc2nc(=O)n(-c3cccnc3C)c3cc(Cl)cc(F)c23)CC1 [Example 31] | > 7.30
32 | C#CCNc1nc(=O)n(-c2cccnc2C)c2cc(Cl)cc(F)c12 [Example 30] | > 7.30
33 | C#CC1(Nc2nc(=O)n(-c3cccnn3)c3nc(C(F)(F)F)ccc23)CC1 [Example 70] | > 7.30
34 | C#CC1(Nc2nc(=O)n(-c3cccnc3)c3cc(C(F)(F)F)cc(OC)c23)CC1 [Example 47] | > 7.30
35 | C#CCNc1nc(=O)n(-c2cccnn2)c2nc(C(F)(F)F)ccc12 [Example 63] | > 7.30
36 | C#CCNc1nc(=O)n(-c2cccnc2)c2cc(C(F)(F)F)cc(OCF)c12 [Example 38] | > 7.30
37 | C#CC1(Nc2nc(=O)n(-c3cccnc3C)c3cc(Cl)ccc23)CC1 [Example 16] | > 7.30
38 | C#CCNc1nc(=O)n(-c2cccnc2C)c2cc(C(F)(F)F)cc(OC(F)F)c12 [Example 40] | > 7.30
39 | C=CCNc1nc(=O)n(-c2cccnc2C)c2cc(Cl)cc(OC)c12 [Example 74] | > 7.30
40 | C#CC(C)Nc1nc(=O)n(-c2cccnc2)c2cc(C(F)(F)F)ccc12 (stereo not shown) [Example 64] | > 7.30

Row | SMILES | pIC50
41 | C#CCNc1nc(=O)n(-c2c(C)ccnc2C)c2cc(C(F)(F)F)ccc12 [Example 52] | > 7.30
42 | C=CC1(Nc2nc(=O)n(-c3cccnc3C)c3cc(Cl)cc(OC)c23)CC1 [Example 75] | > 7.30
43 | C#CC1CCN(c2nc(=O)n(-c3ccccc3Cl)c3cc(Cl)ccc23)CC1 [Example 13] | < 6.00
44 | C#CC1(Nc2nc(=O)n(-c3nccnc3C)c3cc(Cl)cc(OC)c23)CC1 [Example 25] | > 7.30
45 | C#CC1(Nc2nc(=O)n(-c3cccnc3C)c3cc(C(F)(F)F)cc(OC)c23)CC1 [Example 49] | > 7.30
46 | O=c1nc(NCC#CC2CC2)c2ccc(Cl)cc2n1-c1cccnc1 [Example 2] | > 7.30
47 | C#CCNc1nc(=O)n(-c2cccnc2C)c2cc(Br)cc(OC)c12 [Example 19] | > 7.30
48 | C#CC(C)Nc1nc(=O)n(-c2cccnc2C)c2cc(Cl)cc(OC)c12 (stereo not shown) [Example 26] | > 7.30
49 | C#CCNc1nc(=O)n(-c2cccnc2)c2nc(C(F)(F)F)ccc12 [Example 57] | > 7.30
50 | C#CC1(Nc2nc(=O)n(-c3cnccn3)c3cc(C(F)(F)F)ccc23)CC1 [Example 69] | > 7.30
51 | C#CCNc1nc(=O)n(-c2cnccn2)c2cc(C(F)(F)F)cc(OC)c12 [Example 54] | > 7.30
52 | C#CCNc1nc(=O)n(-c2cccnc2)c2cc(C(F)(F)F)cc(OC)c12 [Example 34] | > 7.30
53 | C#CCNc1nc(=O)n(-c2cccnc2)c2cc(Br)ccc12 [Example 18] | > 7.30
54 | C#CCNc1nc(=O)n(-c2cccnc2C)c2nc(C(F)(F)F)cc(OC)c12 [Example 42] | > 7.30
55 | C#CC1(Nc2nc(=O)n(-c3cccnc3)c3cc(Cl)ccc23)CC1 [Example 4] | > 7.30
56 | C#CC1(Nc2nc(=O)n(-c3cccnc3C)c3cc(Cl)cc(OC)c23)CCC1 [Example 28] | > 7.30
57 | C#CC1(Nc2nc(=O)n(-c3cccnc3)c3cc(C(F)(F)F)cnc23)CC1 [Example 56] | < 6.00
58 | C#CCCCNc1nc(=O)n(-c2cccnc2)c2cc(C(F)(F)F)ccc12 [Example 6] | > 7.30
